Our source for the solubility values is patent US20100273789A1, “AMINOACYL PRODRUGS” (BAYER SCHERING PHARMA AKTIENGESELLSCHAFT, priority 2007, published 2010).

A short description of this data set: Determination of the solubility. The settings on record: in water and physiological media. Type of data set: physicochemical. The method, then:
The test substance is suspended in water or dilute hydrochloric acid (pH 4). This suspension is shaken at room temperature for 24 h. After ultracentrifugation at 224 000 g for 30 min, the supernatant is diluted with DMSO and analyzed by HPLC. A two-point calibration plot of the test compound in DMSO is used for quantification.
Agilent 1100 with DAD (G1315A), quat. pump (G1311A), autosampler CTC HTS PAL, degasser (G1322A) and column thermostat (G1316A); column: Zorbax Extend-C18 3.5μ; temperature: 40° C.; mobile phase A: water+5 ml of perchloric acid/liter, mobile phase B: acetonitrile; flow rate: 0.7 ml/min; gradient: 0-0.5 min 98% A, 2% B; ramp 0.5-4.5 min 10% A, 90% B; 4.5-6 min 10% A, 90% B; ramp 6.5-6.7 min 98% A, 2% B; 6.7-7.5 min 98% A, 2% B.

As to `O=C(NC[C@H]1CN(c2ccc(N3CCOCC3=O)cc2F)C(=O)O1)c1ccc(Cl)s1` [compound (A), 5-Chloro-N-({(5S)-3-[2-fluoro-4-(3-oxomorpholin-4-yl)phenyl]-2-oxo-1,3-oxazolidin-5-yl}methyl)thiophene-2-carboxamide], the solubility result is “limited solubility”.
